According to US7544468B2, “Simultaneous collection of DNA and non-nucleic analytes” (Orasure Technologies, Inc., priority 1997, dated 2009):
Where a name gives a salt, the structure may show the parent alone. Read-outs that look alike come from different tables or passages of the source.

What was measured:
[1] = Single dose study: intravenous cocaine, detection in oral fluid and urine by STC assay and GC/MS; type: in vivo, human
Experimental: A total of 10 volunteers received 10 or 25 mg of intravenous cocaine in a controlled environment. Oral fluid and urine specimens were collected over 0-130 hours after dose. Oral fluid specimens (400 µL) were added to the collection pad and diluted into the EPISCREEN™ Control Matrix. Samples were then tested using the STC assay and GC/MS. The results were platted over time for each patient. The oral fluid and urine results were compared using similar points on the curve. For all volunteers, regardless of the dose, the cocaine concentrations in oral fluid were detectable 5 minutes after dosing. For the subject who received 10 mg, oral fluid cocaine levels were no longer detectable after 25 minutes. For the remaining nine subjects who received 25 mg intravenous cocaine, drug levels in oral fluids were detectable after dosing for up to 3-6 hours. The length of time detectable drug concentrations were present in urine varied greatly. […] This variability could be attributed to a number of factors, including the volume of urine collected and the sensitivity of the cutoff used. In general, however, positive results were obtained in the subjects for up to 58 hours after dosing.

[2] = cited from earlier work
[3] = cited from earlier work; remark: listed apart in the source

SMILES: COC(=O)[C@H]1[C@@H](OC(=O)c2ccccc2)C[C@@H]2CC[C@H]1N2C [Cocaine, benzyolmethylecgonine]
- time after dosing at which cocaine concentrations in oral fluid were detectable ([1]; all volunteers, 10 or 25 mg intravenous): 5 min
- time drug levels in oral fluids were detectable after dosing ([1]; nine subjects, 25 mg intravenous): 3 to 6 h
- time after which oral fluid cocaine levels were no longer detectable ([1]; subject who received 10 mg intravenous): 25 min

SMILES: CN[C@@H](C)Cc1ccccc1 [Methamphetamine, methylamphetamine hydrochloride]
- found unchanged in urine ([2]; acid urine): up to 76%
- found unchanged in urine ([2]; alkaline urine): 2%
- excreted in the urine unchanged ([2]; normal conditions): up to 43%
- time detected in oral fluid ([2]; oral fluid, depends on dose and rate of saliva flow): ≤ 50 h
- time detection in urine is successful following use ([2]; urine): 24 to 48 h

SMILES: CCCCCc1cc(O)c2c(c1)OC(C)(C)[C@@H]1CCC(C)=C[C@@H]21 [THC, Tetrahydrocannabinol]
- persistence in saliva ([3]; saliva, after use, depends on pH and rate of saliva flow): ≤ 14 h
- persistence in urine ([3]; urine, depending upon the frequency of use): up to 30 days
